These results are taken from patent US20090318491A1 (priority 2006, published 2009).

SMILES strings stand for the structures.

Broadly, the Ki is the dissociation constant of the complex between target and ligand, obtained from inhibition or displacement.

In one experiment the target is T1, (α1)2β1γδ nAChR (Tetronarce californica, UniProt P02710+P02714+P02718).
T1 construct: 100 μL of the Torpedo californica electroplax fraction (60-70 μg); from tissue; host or cells: Torpedo californica electric organ (electroplax) membranes
T1 sequence (P02710 25-461): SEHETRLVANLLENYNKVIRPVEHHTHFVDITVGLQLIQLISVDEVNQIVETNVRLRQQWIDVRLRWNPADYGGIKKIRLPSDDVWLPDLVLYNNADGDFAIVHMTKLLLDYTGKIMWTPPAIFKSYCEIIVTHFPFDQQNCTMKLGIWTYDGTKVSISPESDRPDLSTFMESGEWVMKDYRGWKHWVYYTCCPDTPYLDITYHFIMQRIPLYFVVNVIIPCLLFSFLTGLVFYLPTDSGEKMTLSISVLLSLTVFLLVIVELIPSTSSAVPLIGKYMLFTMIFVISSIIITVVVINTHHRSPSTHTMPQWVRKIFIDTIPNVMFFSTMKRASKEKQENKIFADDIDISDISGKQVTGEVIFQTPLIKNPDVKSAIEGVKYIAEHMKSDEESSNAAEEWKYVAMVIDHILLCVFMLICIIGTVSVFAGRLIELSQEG
T1 sequence (P02712 25-493, further chain): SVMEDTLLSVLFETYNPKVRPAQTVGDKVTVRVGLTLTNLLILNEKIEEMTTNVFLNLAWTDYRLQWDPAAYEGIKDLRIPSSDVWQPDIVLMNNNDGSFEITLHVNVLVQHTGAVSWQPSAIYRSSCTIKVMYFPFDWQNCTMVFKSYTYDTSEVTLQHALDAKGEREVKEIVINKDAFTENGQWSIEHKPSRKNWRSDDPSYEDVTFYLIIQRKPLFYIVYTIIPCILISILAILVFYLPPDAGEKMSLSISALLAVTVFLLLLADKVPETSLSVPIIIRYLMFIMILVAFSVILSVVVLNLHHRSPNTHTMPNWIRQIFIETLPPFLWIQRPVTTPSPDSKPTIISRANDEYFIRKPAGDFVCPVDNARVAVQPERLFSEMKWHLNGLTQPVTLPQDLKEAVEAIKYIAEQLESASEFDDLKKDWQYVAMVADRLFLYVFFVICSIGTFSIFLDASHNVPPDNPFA
T1 sequence (P02718 22-522): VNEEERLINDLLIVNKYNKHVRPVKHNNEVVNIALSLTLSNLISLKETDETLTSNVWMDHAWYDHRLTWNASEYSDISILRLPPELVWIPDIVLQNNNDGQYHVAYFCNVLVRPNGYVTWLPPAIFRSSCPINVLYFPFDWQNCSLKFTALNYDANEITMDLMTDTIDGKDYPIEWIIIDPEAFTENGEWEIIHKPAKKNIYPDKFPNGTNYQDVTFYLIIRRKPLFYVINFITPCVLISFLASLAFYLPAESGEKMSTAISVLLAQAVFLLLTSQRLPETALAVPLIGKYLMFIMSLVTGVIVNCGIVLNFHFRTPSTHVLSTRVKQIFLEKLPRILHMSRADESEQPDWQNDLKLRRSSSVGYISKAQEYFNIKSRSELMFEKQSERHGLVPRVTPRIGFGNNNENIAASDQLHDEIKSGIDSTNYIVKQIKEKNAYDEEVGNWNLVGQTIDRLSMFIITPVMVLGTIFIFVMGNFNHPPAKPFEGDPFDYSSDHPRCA
T1 sequence (P02714 18-506): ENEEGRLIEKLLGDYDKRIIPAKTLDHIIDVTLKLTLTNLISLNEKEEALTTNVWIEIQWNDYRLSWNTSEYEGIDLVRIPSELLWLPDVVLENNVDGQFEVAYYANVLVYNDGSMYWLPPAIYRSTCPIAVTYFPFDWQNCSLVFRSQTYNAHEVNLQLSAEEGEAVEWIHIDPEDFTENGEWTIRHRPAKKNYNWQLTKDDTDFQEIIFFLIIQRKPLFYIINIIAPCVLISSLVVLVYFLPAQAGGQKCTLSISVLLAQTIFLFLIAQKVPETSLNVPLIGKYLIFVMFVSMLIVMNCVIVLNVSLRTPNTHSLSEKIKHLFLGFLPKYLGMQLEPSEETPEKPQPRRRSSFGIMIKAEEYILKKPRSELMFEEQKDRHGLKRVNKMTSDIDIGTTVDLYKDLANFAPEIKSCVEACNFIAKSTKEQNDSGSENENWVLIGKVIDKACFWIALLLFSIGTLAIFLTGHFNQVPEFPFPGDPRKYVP
The experiment can be described thus: biochemical. It counts as binding, Torpedo californica. How it is done:
Preparation of Torpedo californica Electroplax
Frozen samples of Torpedo californica electric organ (−80° C.) were placed on ice for 30-60 min and allowed to thaw slowly before the membrane preparation. The tissue was homogenised in an ice-cold HSS-buffer (Ultraturrax at 750 rpm) and centrifuged (30,000×g, 10 min, 4° C.). The pellets were collected, washed four times with HSS-buffer through re-homogenization and centrifugation at the same settings. The remaining pellets were collected, re-suspended in HSS and stored in aliquots at −80° C.
One hour before the experiments the tissues were slowly thawed, homogenised in HSS-buffer and centrifuged (25,000×g, 20 min, 4° C.). The pellets were re-suspended in fresh HSS-buffer and used for radioligand binding assays.
Competition Assay Using (±)-[^3H]Epibatidine ([^3H]Epi) and Torpedo californica Electroplax ((α1)2β1γδ nAChR)
(§1) A dilution row of 6-9 concentrations of the test compound was prepared. Each assay sample, with a total volume of 500 μL contained 200 μL of the test compound, 100 μL of (±)-[^3H]epibatidine and 100 μL of the Torpedo californica electroplax fraction (60-70 μg). Non-specific binding was determined in the presence of 300 μM (−)-nicotine tartrate salt. The samples were homogenised and incubated for 90 min at 22° C. The incubation was terminated by vacuum filtration through glass fibre filters pre-soaked in 1% poly(ethyleneimine). The filters were rinsed three times with TRIS-buffer, punched out and transferred into 4 mL scintillation vials. The scintillation vials were filled with scintillation cocktail (2 mL) and the radioactivity was measured using a liquid scintillation counter.
Assays were carried out in duplicates, triplicate or quadruplicates.
(§2) Biological evaluation of the compounds on various nicotinic actylcholine receptors (nAChRs) was conducted with cells described below. […] Functional agonist activity of the cytisines in cells using a fluorescence assay sensitive to changes in cytosolic calcium.

Another experiment deals with T2, α7* nAChR (Rattus norvegicus, UniProt Q05941).
T2 construct: Frozen rat brains were thawed slowly before the preparation of the P2 rat brain membrane fraction; from tissue; host or cells: rat brain P2 membrane fraction
T2 sequence (Q05941 23-502): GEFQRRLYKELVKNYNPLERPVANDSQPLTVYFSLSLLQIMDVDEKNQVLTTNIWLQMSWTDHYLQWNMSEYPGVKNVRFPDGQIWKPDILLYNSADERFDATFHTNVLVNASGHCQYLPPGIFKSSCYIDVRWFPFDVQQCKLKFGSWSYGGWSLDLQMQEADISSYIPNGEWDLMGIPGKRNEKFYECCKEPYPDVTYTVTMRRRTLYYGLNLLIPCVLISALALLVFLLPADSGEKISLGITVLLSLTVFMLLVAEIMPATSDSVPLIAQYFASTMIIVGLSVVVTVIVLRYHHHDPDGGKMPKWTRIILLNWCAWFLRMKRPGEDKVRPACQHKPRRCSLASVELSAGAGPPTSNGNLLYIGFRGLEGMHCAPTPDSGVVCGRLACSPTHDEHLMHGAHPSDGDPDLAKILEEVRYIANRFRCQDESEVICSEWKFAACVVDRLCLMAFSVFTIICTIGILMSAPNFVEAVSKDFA
The experiment can be described thus: Competition assay using [3H]methyllycaconitine and rat brain P2-fraction. It counts as binding. As to conditions: preliminary results; read-out: α7* [3H]MLA rat brain Ki. As to the method:
(§3) Preparation of Rat Brains
(§4) Frozen rat brains were thawed slowly before the preparation of the P2 rat brain membrane fraction (30-60 min on ice, afterwards at room temperature). […] After the determination of the wet weight (1.32 g on average), the brains were pressed into a pulp using a syringe and homogenised in saccharose buffer with a glass teflon homogenizator (Potter, 10 seconds). The tissue was then centrifuged (1,000×g, 20 min, 4° C.), the supernatant (S1) aspirated with a Pasteur pipette and stored on ice. The P1 pellet was re-suspended in saccharose buffer and the centrifugation was repeated. The supernatant S1′ was collected and added to the supernatant S1. The combined supernatants were centrifuged (25,000×g, 20 min, 4° C.), the supernatant S2 was removed and the pellet P2 collected and diluted with HSS-buffer. The buffer volume added was calculated on the basis of the wet weight in a ratio 1:2.
(§5) The final pellet was stored in aliquots at −80° C. On the day of the experiment, the P2 membrane fraction was thawed, diluted with HSS-buffer (30-fold volume), homogenised and centrifuged (35,000×g, 10 min, 4° C.). The collected pellet was suspended in HSS-buffer and used in the radioligand binding experiments.
Competition Assay Using [^3H]Methyllycaconitine ([^3H]MLA) and Rat Brain P2-Fraction (α7*nAChR)
A dilution row of 6-9 concentrations of the test compound was prepared. Each assay sample, with a total volume of 250 μL contained 50 μL of the test compound, 100 μL of [^3H]MLA and 100 μL of the P2-membrane protein fraction (60-70 μg). Non-specific binding was determined in the presence of 1 μM MLA. The samples were homogenised and incubated for 120 min at 22° C. The incubation was terminated by vacuum filtration through glass fibre filters pre-soaked in 1% poly(ethyleneimine). The filters were rinsed three times with TRIS-buffer, punched out and transferred into 4 mL scintillation vials. The scintillation vials were filled with scintillation cocktail (2 mL) and the radioactivity was measured using a liquid scintillation counter.
Assays were carried out in duplicates, triplicates or quadruplicates.

The next experiment addresses T3, α4β2* nAChR (Rattus norvegicus, UniProt P09483+P12390).
T3 construct: Frozen rat brains were thawed slowly before the preparation of the P2 rat brain membrane fraction; from tissue; host or cells: rat brain (without cerebellum and medulla), P2 membrane fraction
The experiment in a line: biochemical. It counts as binding. As to the method:
as §3, §4, §5
Competition Assay Using (±)-[^3H]Epibatidine ([^3H]Epi) and Rat Brain P2-Fraction (α4β2*nAChR)
as §1, with “contained 100 μL of the membrane protein (60 μg), 100 μL of (±)-[^3H]epibatidine (0.5 nM), 100 μL of HSS-buffer and” for “contained”, “test compound” for “test compound, 100 μL of (±)-[^3H]epibatidine and 100 μL of the Torpedo californica electroplax fraction (60-70 μg).”, “The filter” for “The filters”
Assays were carried out in duplicate, triplicates or quadruplicates.
as §2

The target of a further experiment is T4, α3β4* nAChR (Bos taurus, UniProt Q07263+Q8SPU6).
T4 construct: 100 μL of the calf adrenal membrane protein fraction (60-70 μg); from tissue; host or cells: calf adrenals, membrane fraction
T4 sequence (Q07263 22-495): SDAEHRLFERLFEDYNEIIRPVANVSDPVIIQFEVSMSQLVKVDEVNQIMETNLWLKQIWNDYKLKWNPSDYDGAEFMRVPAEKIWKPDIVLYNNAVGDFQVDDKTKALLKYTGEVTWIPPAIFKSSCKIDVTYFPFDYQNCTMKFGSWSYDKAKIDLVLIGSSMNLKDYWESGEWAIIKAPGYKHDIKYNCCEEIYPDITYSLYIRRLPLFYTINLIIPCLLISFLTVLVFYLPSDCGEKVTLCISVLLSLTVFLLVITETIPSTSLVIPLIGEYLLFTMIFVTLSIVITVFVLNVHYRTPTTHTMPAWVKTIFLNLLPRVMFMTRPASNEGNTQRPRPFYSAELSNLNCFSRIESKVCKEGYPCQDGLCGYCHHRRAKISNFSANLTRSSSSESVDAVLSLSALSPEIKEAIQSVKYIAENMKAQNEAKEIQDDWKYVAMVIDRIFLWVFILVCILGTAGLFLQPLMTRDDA
T4 sequence (Q8SPU6 20-496): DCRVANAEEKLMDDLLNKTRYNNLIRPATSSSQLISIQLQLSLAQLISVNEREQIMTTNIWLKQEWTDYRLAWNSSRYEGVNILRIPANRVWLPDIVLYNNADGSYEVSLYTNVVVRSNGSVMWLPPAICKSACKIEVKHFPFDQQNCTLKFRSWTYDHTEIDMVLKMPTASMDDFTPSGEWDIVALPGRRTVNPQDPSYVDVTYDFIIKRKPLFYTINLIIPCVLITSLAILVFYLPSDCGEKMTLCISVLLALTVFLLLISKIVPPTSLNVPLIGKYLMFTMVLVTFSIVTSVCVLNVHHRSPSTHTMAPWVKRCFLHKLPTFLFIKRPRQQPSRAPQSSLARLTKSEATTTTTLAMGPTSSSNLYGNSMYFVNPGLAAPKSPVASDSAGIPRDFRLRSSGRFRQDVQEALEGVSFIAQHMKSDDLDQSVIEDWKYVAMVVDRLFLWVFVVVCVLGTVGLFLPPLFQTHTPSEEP
The experiment in a line: biochemical. It counts as binding, calf.

T3 sequence (P12390 25-500): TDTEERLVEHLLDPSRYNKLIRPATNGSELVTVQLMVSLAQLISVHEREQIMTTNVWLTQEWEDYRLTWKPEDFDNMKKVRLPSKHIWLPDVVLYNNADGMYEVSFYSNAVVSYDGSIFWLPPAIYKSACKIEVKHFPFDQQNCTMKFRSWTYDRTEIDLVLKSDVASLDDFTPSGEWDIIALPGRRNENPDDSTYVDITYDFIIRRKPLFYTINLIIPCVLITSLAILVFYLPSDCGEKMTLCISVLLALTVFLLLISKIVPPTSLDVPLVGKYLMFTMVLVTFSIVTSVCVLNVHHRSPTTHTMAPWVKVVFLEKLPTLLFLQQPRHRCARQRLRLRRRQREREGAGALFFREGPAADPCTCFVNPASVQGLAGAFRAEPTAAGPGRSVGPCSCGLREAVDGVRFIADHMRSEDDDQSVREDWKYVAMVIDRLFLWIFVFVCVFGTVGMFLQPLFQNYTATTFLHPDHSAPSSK
T3 sequence (P09483 31-630): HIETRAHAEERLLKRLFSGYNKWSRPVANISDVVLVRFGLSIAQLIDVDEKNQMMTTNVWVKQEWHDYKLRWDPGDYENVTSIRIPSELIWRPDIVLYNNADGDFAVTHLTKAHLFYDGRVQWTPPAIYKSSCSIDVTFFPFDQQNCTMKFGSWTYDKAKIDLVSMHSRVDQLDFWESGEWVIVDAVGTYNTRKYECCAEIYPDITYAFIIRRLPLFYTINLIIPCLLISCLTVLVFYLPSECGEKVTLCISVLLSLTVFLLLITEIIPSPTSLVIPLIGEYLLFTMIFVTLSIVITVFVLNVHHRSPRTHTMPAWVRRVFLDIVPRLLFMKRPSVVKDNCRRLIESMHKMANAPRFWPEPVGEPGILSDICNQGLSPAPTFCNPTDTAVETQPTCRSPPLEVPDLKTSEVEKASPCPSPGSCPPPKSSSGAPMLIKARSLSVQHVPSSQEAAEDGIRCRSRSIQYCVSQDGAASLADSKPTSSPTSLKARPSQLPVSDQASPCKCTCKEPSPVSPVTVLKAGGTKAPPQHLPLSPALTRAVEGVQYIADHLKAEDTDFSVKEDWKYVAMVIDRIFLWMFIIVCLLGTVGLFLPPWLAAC
Protocol for α3β4* nAChR: Preparation of Calf Adrenals
Frozen calf adrenals (−80° C.) were placed on ice for 30-60 min and allowed to thaw slowly before they were cut into small pieces. After determination of the wet weight (4-6 g), the tissue was homogenised in HSS-buffer (Ultraturrax at 750 rpm). The homogenate was centrifuged (30,000×g, 10 min, 4° C.), the pellets collected and washed. This procedure was repeated five times. The buffer volume used to re-suspend the pellets was calculated on the basis of the wet weight in a ratio 1:6.5.
The prepared tissues were stored in aliquots at −80° C. One hour before the experiments the tissues were slowly thawed, homogenised in HSS-buffer and centrifuged (25,000×g, 20 min, 4° C.). The pellets were re-suspended in fresh HSS-buffer and used for radioligand binding assays.
Competition Assay Using (±)-[^3H]Epibatidine ([^3H]Epi) and Calf Adrenals Membrane Fraction (α3β4*nAChR)
Each assay sample, with a total volume of 500 μL contained 200 μL of the test compound, 100 μL of (±)-[^3H]epibatidine, 100 μL of the calf adrenal membrane protein fraction (60-70 μg) and 100 μM of HSS-buffer. Non-specific binding was determined in the presence of 300 μM (−)-nicotine tartrate salt. The samples were homogenised and incubated for 90 min at 22° C. The incubation was terminated by vacuum filtration through glass fibre filters presoaked in 1% poly(ethyleneimine). The filters were rinsed three times with TRIS-buffer, punched out and transferred into 4 mL scintillation vials. The scintillation vials were filled with scintillation cocktail (2 mL) and the radioactivity was measured using a liquid scintillation counter.

For `Cc1cccc(-c2ccc3n(c2=O)C[C@@H]2CNC[C@H]3C2)c1` [95e, 3-(3′-Methyl-phenyl)-cytisine], the inhibition constant Ki at (α1)2β1γδ nAChR was over 10 µM; at α7* nAChR, over 10 µM; at α4β2* nAChR, 0.028 µM; on α3β4* nAChR it was over 10 µM.
Consider `O=c1c(-c2ccc3c(c2)OCO3)ccc2n1C[C@@H]1CNC[C@H]2C1` [118e, 3-(3′,4′-Methylenedioxy-phenyl)-cytisine], for which the inhibitory constant (Ki) on (α1)2β1γδ nAChR and on α3β4* nAChR was over 10 µM in each case.
In the case of `O=c1c(-c2cccc(F)c2)ccc2n1C[C@@H]1CNC[C@H]2C1` [99e, 3-(3′-Fluoro-phenyl)-cytisine], the Ki is over 10 µM on (α1)2β1γδ nAChR, over 10 µM on α7* nAChR, 0.0057 µM at α4β2* nAChR and 1.2 µM on α3β4* nAChR.
Regarding `O=c1c(-c2cccc3cccnc23)ccc2n1C[C@@H]1CNC[C@H]2C1` [121e, 3-Quinolin-8′-yl-cytisine], the Ki at (α1)2β1γδ nAChR is over 10 µM; on α7* nAChR, over 10 µM; on α4β2* nAChR, 0.095 µM; on α3β4* nAChR, over 10 µM.
As to `O=c1ccc(-c2cccnc2)c2n1C[C@@H]1CNC[C@H]2C1` [125e, 5-(Pyridin-3′-yl)-cytisine], the Ki on (α1)2β1γδ nAChR was over 10 µM; at α7* nAChR it was over 10 µM; at α4β2* nAChR, 0.0109 µM; at α3β4* nAChR, 4.3 µM.
For the compound `Cn1cc(-c2ccc3n(c2=O)CC2CNCC3C2)cn1` (stereo not drawn) [122e, 3-(1-Methyl-1H-pyrazol-4′-yl)-cytisine], the inhibition constant Ki at (α1)2β1γδ nAChR is over 5 µM; on α7* nAChR it was over 10 µM; on α4β2* nAChR, 0.000177 µM; at α3β4* nAChR, 0.033 µM.
As for `O=c1c(-c2cccc(Cl)c2)ccc2n1C[C@@H]1CNC[C@H]2C1` [98e, 3-(3′-Chloro-phenyl)-cytisine], the Ki on (α1)2β1γδ nAChR is over 10 µM; at α7* nAChR, over 10 µM; on α4β2* nAChR, 0.199 µM; on α3β4* nAChR it was over 10 µM.
As to `O=c1c(-c2cccc(OC(F)(F)F)c2)ccc2n1C[C@@H]1CNC[C@H]2C1` [97e, 3-(3′-Trifluoromethoxy-phenyl)-cytisine], the Ki on (α1)2β1γδ nAChR was over 10 µM; on α7* nAChR, over 10 µM; at α4β2* nAChR, 0.067 µM; at α3β4* nAChR, over 10 µM.
For the compound `O=c1c(-c2cccnc2)ccc2n1CC1CNCC2C1` (stereo not drawn) [drawing 100], the Ki at (α1)2β1γδ nAChR is over 10 µM; at α4β2* nAChR, 0.00091 µM.
`O=c1c(-c2cccnc2)ccc2n1CC1CNCC2C1` (stereo not drawn) [119e, 3-(Pyridin-3′-yl)-cytisine]: the Ki at α7* nAChR was over 10 µM.
Regarding `O=c1ccc(-c2cccc([N+](=O)[O-])c2)c2n1C[C@@H]1CNC[C@H]2C1` [104e, 5-(3′-Nitro-phenyl)-cytisine], the Ki at (α1)2β1γδ nAChR was over 10 µM; on α7* nAChR, over 10 µM; at α4β2* nAChR, 0.0037 µM; on α3β4* nAChR, 0.481 µM.
`Cn1cc(-c2ccc(=O)n3c2[C@H]2CNC[C@H](C2)C3)cn1` [126e, 5-(1-Methyl-1H-pyrazol-4′-yl)-cytisine]: the Ki on (α1)2β1γδ nAChR was over 10 µM; on α7* nAChR, over 10 µM; at α4β2* nAChR it was 0.0022 µM; at α3β4* nAChR, 0.656 µM.
With `Cc1cccc(-c2ccc(=O)n3c2[C@H]2CNC[C@H](C2)C3)c1` [105e, 5-(3′-Methyl-phenyl)-cytisine], the inhibition constant Ki at (α1)2β1γδ nAChR was over 10 µM; at α7* nAChR it was over 10 µM; on α4β2* nAChR, 0.024 µM; on α3β4* nAChR it was over 10 µM.
Turning to `O=c1c(-c2cccnc2)cc(Br)c2n1C[C@@H]1CNC[C@H]2C1` [129e, 5-Bromo-3-(pyridin-3′-yl)-cytisine], the inhibition constant Ki at (α1)2β1γδ nAChR was over 10 µM; at α7* nAChR, over 10 µM; on α4β2* nAChR, 0.092 µM; at α3β4* nAChR, over 2 µM.
As for `O=c1c(-c2ccccc2)ccc2n1C[C@@H]1CNC[C@H]2C1` [93e, 3-Phenyl-cytisine], the inhibitory constant (Ki) at (α1)2β1γδ nAChR and on α3β4* nAChR was over 10 µM in each case.
On to `O=c1ccc(-c2cccc(C(F)(F)F)c2)c2n1C[C@@H]1CNC[C@H]2C1` [106e, 5-(3′-Trifluoromethyl-phenyl)-cytisine], for which the inhibitory constant (Ki) on (α1)2β1γδ nAChR is over 10 µM; on α7* nAChR it was over 10 µM; at α4β2* nAChR it was 0.055 µM; on α3β4* nAChR, over 10 µM.
Consider `O=c1ccc(-c2ccc3[nH]ccc3c2)c2n1C[C@@H]1CNC[C@H]2C1` [123e, (1H-Indol-5′-yl)-cytisine], for which the inhibition constant (Ki) is over 10 µM at (α1)2β1γδ nAChR, over 10 µM on α7* nAChR, 0.0204 µM on α4β2* nAChR and over 10 µM at α3β4* nAChR.
For `O=c1ccc(-c2cccc(OC(F)(F)F)c2)c2n1C[C@@H]1CNC[C@H]2C1` [107e, 5-(3′-Trifluoromethoxy-phenyl)-cytisine], the Ki at (α1)2β1γδ nAChR was over 10 µM; at α7* nAChR, over 10 µM; at α4β2* nAChR, 0.023 µM; at α3β4* nAChR it was over 10 µM.
Turning to `O=c1ccc(-c2cccc(-c3ccccc3)c2)c2n1C[C@@H]1CNC[C@H]2C1` [110e, 5-(Biphenyl-3′-yl)-cytisine], the inhibitory constant (Ki) on (α1)2β1γδ nAChR was over 10 µM; on α7* nAChR it was over 10 µM; on α4β2* nAChR it was 0.19 µM; on α3β4* nAChR, over 10 µM.
In the case of `O=c1ccc(-c2cccc(F)c2)c2n1C[C@@H]1CNC[C@H]2C1` [109e, 5-(3′-Fluoro-phenyl)-cytisine], the inhibitory constant (Ki) on (α1)2β1γδ nAChR was over 10 µM; at α7* nAChR, over 10 µM; at α4β2* nAChR, 0.3 µM; on α3β4* nAChR it was over 2 µM.
For the compound `O=c1ccc(-c2cccc(Cl)c2)c2n1C[C@@H]1CNC[C@H]2C1` [108e, 5-(3′-Chloro-phenyl)-cytisine], the Ki is over 10 µM at (α1)2β1γδ nAChR, over 10 µM on α7* nAChR, 0.17 µM on α4β2* nAChR and over 10 µM on α3β4* nAChR.
On to `O=c1c(-c2ccccc2)cc(Br)c2n1C[C@@H]1CNC[C@H]2C1` [128e, 5-Bromo-3-phenyl-cytisine], for which the Ki on (α1)2β1γδ nAChR was over 10 µM; on α7* nAChR, over 10 µM; at α4β2* nAChR, 0.131 µM; on α3β4* nAChR, over 5 µM.
As to `O=c1ccc(-c2ccccc2)c2n1C[C@@H]1CNC[C@H]2C1` [103e, 5-Phenyl-cytisine], the inhibition constant (Ki) is over 10 µM at (α1)2β1γδ nAChR, over 10 µM at α7* nAChR, 0.045 µM on α4β2* nAChR and over 10 µM on α3β4* nAChR.
As to `O=c1c(-c2ccncc2)ccc2n1C[C@@H]1CNC[C@H]2C1` [120e, 3-(Pyridin-4′-yl)-cytisine], the Ki at (α1)2β1γδ nAChR is over 10 µM.
